Numbered stars: 1 amine (or outer) side, 2 acyl side, 3 side chain; on linkers, the order of the positions; unused ones are H or OH. Bridge positions count the residues as written; N and C are the ends. Side chains are listed from the residue outwards. Peptide text beside a SMILES is read from it. * marks the point of attachment. C20 diacid = O=C(O)CCCCCCCCCCCCCCCCCCC(=O)*; γGlu = O=C(O)[C@H](CCC(=O)[*:2])N[*:1]; AEEA = NCCOCCOCC(=O)O
Molecular target: T1, human amylin receptor (amylin 3(a) receptor: human calcitonin receptor + RAMP-3) (Homo sapiens, UniProt O60896+P30988)
T1 construct: expressed in transfected cells
T1 sequence (P30988 25-474): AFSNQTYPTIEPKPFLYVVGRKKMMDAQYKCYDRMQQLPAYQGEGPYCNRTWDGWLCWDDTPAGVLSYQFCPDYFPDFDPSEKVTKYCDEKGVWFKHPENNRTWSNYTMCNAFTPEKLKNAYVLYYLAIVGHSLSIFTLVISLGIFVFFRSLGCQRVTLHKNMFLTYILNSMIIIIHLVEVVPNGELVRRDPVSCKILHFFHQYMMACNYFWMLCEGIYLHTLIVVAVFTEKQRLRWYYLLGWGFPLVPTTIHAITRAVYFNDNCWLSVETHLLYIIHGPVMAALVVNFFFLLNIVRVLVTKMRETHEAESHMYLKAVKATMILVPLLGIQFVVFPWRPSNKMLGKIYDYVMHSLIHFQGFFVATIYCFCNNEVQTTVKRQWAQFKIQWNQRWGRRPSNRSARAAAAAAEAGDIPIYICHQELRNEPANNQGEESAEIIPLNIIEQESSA
T1 sequence (O60896 24-148 partner): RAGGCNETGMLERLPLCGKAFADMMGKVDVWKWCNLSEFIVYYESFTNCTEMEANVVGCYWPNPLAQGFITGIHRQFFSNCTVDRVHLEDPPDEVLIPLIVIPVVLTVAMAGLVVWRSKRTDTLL
Test: Assay (II)a functional assay, human amylin receptor (CRE luciferase, BHK cells)
Type: cell-based

[1] = Table 6, human functional selectivity (hCTR EC50 / hAmylin-R EC50)
[2] = Table 6a, human functional selectivity (hCTR EC50 / hAmylin-R EC50), at least 5
[3] = Table 6j, hCTR funct. EC50 / hAmylin-R funct. EC50
[4] = Table 6k, hCTR funct. EC50 / hAmylin-R funct. EC50
[5] = Table 6i, hCTR funct. EC50 / hAmylin-R funct. EC50

SMILES	Ratio hCT/hAmylin funct. [1]	Ratio hCT/hAmylin funct. [2]	Ratio hCT/hAmylin funct. [3]	Ratio hCT/hAmylin funct. [4]	Ratio hCT/hAmylin funct. [5]
CC[C@H](C)[C@H](NC(=O)[C@H](C)NC(=O)CNC(=O)[C@H](Cc1ccccc1)NC(=O)[C@H](CC(N)=O)NC(=O)[C@@H]1CCCN1C(=O)[C@H](CO)NC(=O)[C@H](CO)NC(=O)[C@H](Cc1c[nH]cn1)NC(=O)[C@H](CCCNC(=N)N)NC(=O)[C@H](CC(C)C)NC(=O)[C@H](Cc1ccccc1)NC(=O)[C@H](CC(N)=O)NC(=O)[C@H](C)NC(=O)[C@H](CC(C)C)NC(=O)[C@H](CCCNC(=N)N)NC(=O)[C@H](CCC(N)=O)NC(=O)[C@@H](NC(=O)[C@H](C)NC(=O)[C@@H]1CSSC[C@H](NC(=O)[C@@H](N)CCCCNC(=O)COCCOCCNC(=O)CC[C@H](NC(=O)CCCCCCCCCCCCCCCCCCC(=O)O)C(=O)O)C(=O)N[C@@H](CC(N)=O)C(=O)N[C@@H]([C@@H](C)O)C(=O)N[C@@H](C)C(=O)N[C@@H]([C@@H](C)O)C(=O)N1)[C@@H](C)O)C(=O)N1CCC[C@H]1C(=O)N[C@@H](CO)C(=O)N1CCC[C@H]1C(=O)N[C@H](C(=O)N1CCC[C@H]1C(=O)N[C@H](C(=O)NCC(=O)N[C@@H](CO)C(=O)N[C@@H](CC(N)=O)C(=O)N[C@H](C(=O)N[C@@H](Cc1ccc(O)cc1)C(N)=O)[C@@H](C)O)C(C)C)[C@@H](C)O [Example 54] (H-K([AEEA-γGlu-C20 diacid])CNTATCATQRLANFLRHSSPNFGAIPSPTPVGSNTY-NH2; disulfide 2-7; N-terminus assumed)	9.6	9.6	9.6	9.6	–
CC[C@H](C)[C@H](NC(=O)[C@H](C)NC(=O)CNC(=O)[C@H](Cc1ccccc1)NC(=O)[C@H](CC(N)=O)NC(=O)[C@@H]1CCCN1C(=O)[C@H](CO)NC(=O)[C@H](CO)NC(=O)[C@H](Cc1c[nH]cn1)NC(=O)[C@H](CCCNC(=N)N)NC(=O)[C@H](CC(C)C)NC(=O)[C@H](Cc1ccccc1)NC(=O)[C@H](C)NC(=O)[C@H](C)NC(=O)[C@H](CC(C)C)NC(=O)[C@H](CCCNC(=N)N)NC(=O)[C@H](CCC(N)=O)NC(=O)[C@@H](NC(=O)[C@H](C)NC(=O)[C@@H]1CSSC[C@H](NC(=O)[C@@H](N)CCCCNC(=O)CC[C@H](NC(=O)CCCCCCCCCCCCCCCCCCC(=O)O)C(=O)O)C(=O)N[C@@H](CC(N)=O)C(=O)N[C@@H]([C@@H](C)O)C(=O)N[C@@H](C)C(=O)N[C@@H]([C@@H](C)O)C(=O)N1)[C@@H](C)O)C(=O)N1CCC[C@H]1C(=O)N[C@@H](CO)C(=O)N[C@@H](CO)C(=O)N[C@H](C(=O)N[C@@H](CC(N)=O)C(=O)N[C@H](C(=O)NCC(=O)N1CCC[C@H]1C(=O)N[C@@H](CC(N)=O)C(=O)N[C@H](C(=O)N[C@@H](Cc1ccc(O)cc1)C(N)=O)[C@@H](C)O)C(C)C)[C@@H](C)O [Example 94] (H-K([γGlu-C20 diacid])CNTATCATQRLAAFLRHSSPNFGAIPSSTNVGPNTY-NH2; disulfide 2-7; N-terminus assumed)	4.5	–	–	–	–
CC[C@H](C)[C@H](NC(=O)[C@H](C)NC(=O)CNC(=O)[C@H](Cc1ccccc1)NC(=O)[C@H](CC(N)=O)NC(=O)[C@@H]1CCCN1C(=O)[C@H](CO)NC(=O)[C@H](CO)NC(=O)[C@H](Cc1c[nH]cn1)NC(=O)[C@H](CCCNC(=N)N)NC(=O)[C@H](CC(C)C)NC(=O)[C@H](Cc1ccccc1)NC(=O)[C@H](CCC(=O)O)NC(=O)[C@H](C)NC(=O)[C@H](CC(C)C)NC(=O)[C@H](CCCNC(=N)N)NC(=O)[C@H](CCC(N)=O)NC(=O)[C@@H](NC(=O)[C@H](C)NC(=O)[C@@H]1CSSC[C@H](NC(=O)[C@@H](N)CCCCNC(=O)CC[C@H](NC(=O)CCCCCCCCCCCCCCCCCCC(=O)O)C(=O)O)C(=O)N[C@@H](CC(N)=O)C(=O)N[C@@H]([C@@H](C)O)C(=O)N[C@@H](C)C(=O)N[C@@H]([C@@H](C)O)C(=O)N1)[C@@H](C)O)C(=O)N1CCC[C@H]1C(=O)N[C@@H](CO)C(=O)N[C@@H](CO)C(=O)N[C@H](C(=O)N[C@@H](CC(N)=O)C(=O)N[C@H](C(=O)NCC(=O)N[C@@H](Cc1c[nH]cn1)C(=O)N[C@@H](CCC(=O)O)C(=O)N[C@H](C(=O)N[C@@H](Cc1ccc(O)cc1)C(N)=O)[C@@H](C)O)C(C)C)[C@@H](C)O [Example 107] (H-K([γGlu-C20 diacid])CNTATCATQRLAEFLRHSSPNFGAIPSSTNVGHETY-NH2; disulfide 2-7 (inferred); N-terminus and C-terminus assumed)	6.3	6.3	6.3	6.3	6.3

The next lines start with the values.

Ratio hCT/hAmylin funct. [1]	Ratio hCT/hAmylin funct. [2]	Ratio hCT/hAmylin funct. [3]	Ratio hCT/hAmylin funct. [4]	Ratio hCT/hAmylin funct. [5]	SMILES
3.8	–	3.8	–	3.8	CC[C@H](C)[C@H](NC(=O)[C@H](C)NC(=O)CNC(=O)[C@H](Cc1ccccc1)NC(=O)[C@H](CC(N)=O)NC(=O)[C@@H]1CCCN1C(=O)[C@H](CO)NC(=O)[C@H](CO)NC(=O)[C@H](Cc1c[nH]cn1)NC(=O)[C@H](CCCNC(=N)N)NC(=O)[C@H](CC(C)C)NC(=O)[C@H](Cc1ccccc1)NC(=O)[C@H](CCC(=O)O)NC(=O)[C@H](C)NC(=O)[C@H](CC(C)C)NC(=O)[C@H](CCCNC(=N)N)NC(=O)[C@H](CCC(N)=O)NC(=O)[C@@H](NC(=O)[C@H](C)NC(=O)[C@@H]1CSSC[C@H](NC(=O)[C@@H](N)CCCCNC(=O)CC[C@H](NC(=O)CC[C@H](NC(=O)CCCCCCCCCCCCCCCCCCC(=O)O)C(=O)O)C(=O)O)C(=O)N[C@@H](CC(N)=O)C(=O)N[C@@H]([C@@H](C)O)C(=O)N[C@@H](C)C(=O)N[C@@H]([C@@H](C)O)C(=O)N1)[C@@H](C)O)C(=O)N1CCC[C@H]1C(=O)N[C@@H](CO)C(=O)N[C@@H](CO)C(=O)N[C@H](C(=O)N[C@@H](CC(N)=O)C(=O)N[C@H](C(=O)NCC(=O)N[C@@H](Cc1c[nH]cn1)C(=O)N[C@@H](CC(N)=O)C(=O)N[C@H](C(=O)N[C@@H](Cc1ccc(O)cc1)C(N)=O)[C@@H](C)O)C(C)C)[C@@H](C)O [Example 87] (H-K([γGlu-γGlu-C20 diacid])CNTATCATQRLAEFLRHSSPNFGAIPSSTNVGHNTY-NH2; disulfide 2-7)
33.0	33.0	33.0	33.0	–	CC[C@H](C)[C@H](NC(=O)[C@H](C)NC(=O)CNC(=O)[C@H](Cc1ccccc1)NC(=O)[C@H](CC(N)=O)NC(=O)[C@@H]1CCCN1C(=O)[C@H](CO)NC(=O)[C@H](CO)NC(=O)[C@H](Cc1c[nH]cn1)NC(=O)[C@H](CCCNC(=N)N)NC(=O)[C@H](CC(C)C)NC(=O)[C@H](Cc1ccccc1)NC(=O)[C@H](CC(N)=O)NC(=O)[C@H](C)NC(=O)[C@H](CC(C)C)NC(=O)[C@H](CCCNC(=N)N)NC(=O)[C@H](CCC(N)=O)NC(=O)[C@@H](NC(=O)[C@H](C)NC(=O)[C@@H]1CSSC[C@H](NC(=O)[C@@H](N)CCCCNC(=O)COCCOCCNC(=O)COCCOCCNC(=O)CC[C@H](NC(=O)CCCCCCCCCCCCCCCCCCC(=O)O)C(=O)O)C(=O)N[C@@H](CC(N)=O)C(=O)N[C@@H]([C@@H](C)O)C(=O)N[C@@H](C)C(=O)N[C@@H]([C@@H](C)O)C(=O)N1)[C@@H](C)O)C(=O)N1CCC[C@H]1C(=O)N[C@@H](CO)C(=O)N[C@@H](CO)C(=O)N[C@H](C(=O)N[C@@H](CC(N)=O)C(=O)N[C@H](C(=O)NCC(=O)N[C@@H](CCCNC(=N)N)C(=O)N[C@@H](CC(N)=O)C(=O)N[C@H](C(=O)N[C@@H](Cc1ccc(O)cc1)C(N)=O)[C@@H](C)O)C(C)C)[C@@H](C)O [Example 95] (H-K([AEEA-AEEA-γGlu-C20 diacid])CNTATCATQRLANFLRHSSPNFGAIPSSTNVGRNTY-NH2; disulfide 2-7 (inferred); N-terminus and C-terminus assumed)
4.9	–	–	–	–	CC[C@H](C)[C@H](NC(=O)[C@H](C)NC(=O)CNC(=O)[C@H](Cc1ccccc1)NC(=O)[C@H](CC(N)=O)NC(=O)[C@@H]1CCCN1C(=O)[C@H](CO)NC(=O)[C@H](CO)NC(=O)[C@H](Cc1c[nH]cn1)NC(=O)[C@H](CCCNC(=N)N)NC(=O)[C@H](CC(C)C)NC(=O)[C@H](Cc1ccccc1)NC(=O)[C@H](C)NC(=O)[C@H](C)NC(=O)[C@H](CC(C)C)NC(=O)[C@H](CCCNC(=N)N)NC(=O)[C@H](CCC(N)=O)NC(=O)[C@@H](NC(=O)[C@H](C)NC(=O)[C@@H]1CSSC[C@H](NC(=O)[C@H](CCCNC(=N)N)NC(=O)CNC(=O)CC[C@H](NC(=O)CCCCCCCCCCCCCCCCCCC(=O)O)C(=O)O)C(=O)N[C@@H](CC(N)=O)C(=O)N[C@@H]([C@@H](C)O)C(=O)N[C@@H](C)C(=O)N[C@@H]([C@@H](C)O)C(=O)N1)[C@@H](C)O)C(=O)N1CCC[C@H]1C(=O)N[C@@H](CO)C(=O)N[C@@H](CO)C(=O)N[C@H](C(=O)N[C@@H](CC(N)=O)C(=O)N[C@H](C(=O)NCC(=O)N[C@@H](Cc1c[nH]cn1)C(=O)N[C@@H](CC(N)=O)C(=O)N[C@H](C(=O)N[C@@H](Cc1ccc(O)cc1)C(N)=O)[C@@H](C)O)C(C)C)[C@@H](C)O [Example 101] ({C20 diacid-γGlu}-GRCNTATCATQRLAAFLRHSSPNFGAIPSSTNVGHNTY-NH2; disulfide 3-8 (inferred); C-terminus assumed)
